Results taken from the supplement of paper PMC8671470.
± gives the standard deviation of the averaged measurements.

Experiments:
Conditions in all cases: 72 h
[1] = tested on: myeloid leukemia patient primary cells Pat.10; experiment: cell viability (% survival relative to DMSO control); higher = less cytotoxic
In short: (§1)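 Where an area under the curve appears, it was computed with the drc and PharmacoGx R packages from log-logistic fits. Those fits used four parameters. The underlying viability data came from CellTiter-Glo after 72 h, normalised to DMSO and 10 μM proteasome-inhibitor wells, with thawed, Ficoll-purified AML or CML patient mononuclear cells at 10,000 cells/well in RPMI 1640 with 10% FBS on 384-well plates pre-printed with 70 compounds at five tenfold concentrations (1–10,000 nM) in duplicate.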

[2] = tested on: myeloid leukemia patient primary cells Pat.11; experiment: as above
In short: as §1

[3] = tested on: myeloid leukemia patient primary cells Pat.15; experiment: as above
In short: as §1

[4] = tested on: myeloid leukemia patient primary cells Pat.4; experiment: as above
In short: as §1

[5] = tested on: myeloid leukemia patient primary cells Pat.14; experiment: as above
In short: as §1

[6] = tested on: myeloid leukemia patient primary cells Pat.5; experiment: as above
In short: as §1

[7] = tested on: myeloid leukemia patient primary cells Pat.13; experiment: as above
In short: as §1

[8] = tested on: myeloid leukemia patient primary cells Pat.12; experiment: as above
In short: as §1

[9] = tested on: myeloid leukemia patient primary cells Pat.2; experiment: as above
In short: as §1

[10] = tested on: myeloid leukemia patient primary cells Pat.8; experiment: as above
In short: as §1

[11] = tested on: myeloid leukemia patient primary cells Pat.9; experiment: as above
In short: as §1

[12] = tested on: myeloid leukemia patient primary cells Pat.3; experiment: as above
In short: as §1

[13] = tested on: myeloid leukemia patient primary cells Pat.7; experiment: as above
In short: as §1

[14] = tested on: myeloid leukemia patient primary cells Pat.1; experiment: as above
In short: as §1

HL-60 = experiment: cell viability (% survival relative to DMSO control); higher = less cytotoxic
In short: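 Four-parameter log-logistic fits in drc and PharmacoGx supplied area under the curve where it is given. Underlying viability came from CellTiter-Glo, normalised to DMSO and proteasome-inhibitor wells, with the proteasome inhibitor at 10 μM. HL-60 cells in RPMI 1640 plus 10% FBS had been rescreened against the full library at five tenfold concentrations of 1–10,000 nM, in duplicate on 384-well plates, with DMSO or 100 nM of one of three metabolic inhibitors, for 72 h at 37 °C, 5% CO2.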

K-562 = experiment: cell viability (% survival relative to DMSO control, bortezomib = 0%); higher = less cytotoxic
In short: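 Reported values are percent survival from duplicate wells, averaged. Fifteen myeloid leukaemia cell lines were treated in 384-well plates with compounds at 1, 10, 100, 1000 or 10000 nM for 72 h at 37 °C in 5% CO2. Signals from CellTiter-Glo luminescence were scaled with vehicle as 100% and a 10 µM positive control as 0%.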

O=C(O)Cn1nnc(-c2cc(N3CCC(Oc4cc(F)ccc4Br)CC3)no2)n1 [MK-8245]
cell viability [%]
Conditions	1 nM	10 nM	100 nM	1000 nM	10000 nM
K-562	97.7	122	90.5	88.2	41.2
[1]	56.6	80.7	> 100	54.5	4.72
[2]	> 100	96.4	> 100	> 100	97
[3]	95.9	91.5	93.5	> 100	95.2
[4]	97.3	96.4	81	97.3	> 100
[5]	95.5	90.3	99.3	90.2	89.8
[6]	> 100	93.9	90.6	94.3	70
[7]	87.2	88.5	99.8	95.8	95.5
[8]	> 100	88.3	> 100	95.7	93.6
[9]	> 100	97	> 100	> 100	96.3
[10]	> 100	89.4	94.8	91.6	> 100
[11]	82.3	69.4	79.2	85.3	71.9
[12]	> 100	98.2	78.1	62	57
[13]	97.4	93.6	82.9	> 100	56.7
[14]	96.4	77.4	98	97.5	98.5

cell viability [%], HL-60
Conditions	0.001 µM	0.01 µM	0.1 µM	1 µM	10 µM
co-treatment: AZD3965 100 nM	94.6 ± 1.5	102 ± 8.3	96.7 ± 7.1	94.6 ± 4.8	108 ± 6.2
co-treatment: DMSO vehicle	99.9 ± 1.1	99.3 ± 1.8	97.87 ± 0.73	94.57 ± 0.71	100 ± 2.8
co-treatment: GSK2194069 100 nM	96.6 ± 1.2	100 ± 4.3	101 ± 4.2	90.2 ± 5.6	97.4 ± 3.8
co-treatment: pictilisib 100 nM	95.7 ± 1.8	96.7 ± 1.2	104 ± 1.7	90.7 ± 9.2	103 ± 4.2
